Laboratory results as given in patent publication US4049495A, “Physiologically active substances and fermentative process for producing the same” (Sankyo Company Limited, priority 1974, dated 1977).
≈ marks a conversion by molar mass, not a printed value.

How the values were obtained:
[1] = system: cholesterol and neutral lipid levels in blood serum; assay: lowering of cholesterol and neutral lipid in blood serum of rats, oral ML-236A in gum arabic; type: in vivo; settings: 5 mg./kg. in gum arabic, vs gum arabic alone
Method: 2. Two of four groups of rats, each group consisting of 5 animals, were orally given one dose of 5 mg./kg. of ML-236A suspended in gum arabic. After 3 hours and 18 hours from administration, animals were sacrificed by bleeding and blood was collected. Cholesterol and neutral lipid levels in blood serum were determined by a conventional method.

[2] = solubility in organic solvents; type: physicochemical
cholesterol biosynthesis = assay: inhibition of cholesterol biosynthesis in vitro (rat liver slice, radioactive acetic acid); type: cell-based; settings: 1 h, 37° C., 60 minutes, read-out: concentration exhibiting about 50% inhibition of cholesterol biosynthesis
Method: I. The activity in vitro on inhibition of cholesterol biosynthesis of the substances ML-236 may be assayed by the following method. Slice of rat liver and radioactive acetic acid are brought to interaction at 37° C. for 60 minutes, the radioactive cholesterol thus biosynthesized is saponified and separated as precipitates with digitonin and then its radioactivity is measured to determine the produced cholesterol amount. Separately, the same procedures as above are employed except that ML-236 is added at the beginning of the reaction, thereby the biosynthesized cholesterol amount being determined. Thus, an effect of ML-236 can be quantitively determined. (See Bricker et al.: The Journal of Biological Chemistry, 247, 4914, 1972).

[3] = system: cholesterol and neutral lipid levels in blood serum; assay: lowering of cholesterol and neutral lipid in blood serum of rats, oral ML-236B in physiological saline; type: in vivo; settings: 80 mg./kg. powdery in physiological saline solution, vs saline
Method: Moreover, one of two other groups of rats, each group consisting of 5 animals, were orally given 80 mg./kg. of powdery ML-236B in the form of a physiological saline solution. After 3 hours from administration, cholesterol and neutral lipid levels in blood serum were determined in the same manner as above.

[4] = system: cholesterol levels in blood and liver; assay: lowering of cholesterol in blood and liver of Triton WR 1339-treated rats; type: in vivo; settings: 20 mg./kg. intraperitoneal, with Triton WR 1339 200 mg./kg. i.v., 24 hours, vs Triton alone
Method: 1. One of two groups of rats having an average weight of about 200 g., each group consisting of 5 animals, was individually given by intraveneous injection with 200 mg./kg. of Triton WR 1339 (trade name; available from Ruger Chemical Co., Ltd., U.S.A.; having an activity of increasing cholesterol level in blood) simultaneously with intraperitoneal administration of 20 mg./kg. of ML-236B. After 24 hours from administration, rats were sacrificed by bleeding, blood and liver were collected and their cholesterol and neutral lipid levels were determined by a conventional method.

[5] = in methanol, ethanol, acetone, ethyl acetate, chloroform and benzene
[6] = in n-hexane and petroleum ether

For `CC1C=CC2=CCCC(O)C2C1CCC1CC(O)CC(=O)O1` (centres unmarked) [ML-236A], the “lowering of cholesterol level in blood serum after 3 hours” value ([1]; 3 hours) was 13.5%, the “lowering of neutral lipid level in blood serum after 3 hours” value ([1]; 3 hours) was 49.5% and the “lowering of cholesterol level in blood serum after 18 hours” value ([1]; 18 hours) was 13.5%. The “lowering of neutral lipid level in blood serum after 18 hours” value ([1]; 18 hours) was “not observed”, the Solubility [2, 5] was “Soluble” and the Solubility [2, 6] was “Insoluble”. For the same molecule, the IC50 (cholesterol biosynthesis) was about 0.04 µg/mL (≈ 0.131 µM).
For `CCC(C)C(=O)OC1CCC=C2C=CC(C)C(CCC3CC(O)CC(=O)O3)C21` (centres unmarked) [ML-236B], the “lowering of cholesterol level in blood serum after 3 hours” value [3] was 20.0%, the “lowering of neutral lipid level in blood serum after 3 hours” value [3] was 44.2% and the “lowering of cholesterol level in blood” value [4] was 14.2%. The “lowering of cholesterol level in liver” value [4] was 10.1%, the Solubility [2, 5] was “Soluble” and the Solubility [2, 6] was “Insoluble”. It also gave an IC50 (cholesterol biosynthesis) of about 0.01 µg/mL (≈ 0.0256 µM).
In the case of `CC1C=CC2=CCCCC2C1CCC1CC(O)CC(=O)O1` (centres unmarked) [ML-236C], the Solubility [2, 5] is reported as “Soluble”, the Solubility [2, 6] is reported as “Insoluble” and the IC50 (cholesterol biosynthesis) is reported as about 0.08 µg/mL (≈ 0.275 µM).
